Experimental data as given in patent US9340500B2, “Aromatic heterocyclic derivative having TRPV4-inhibiting activity” (SHIONOGI & CO., LTD., priority 2011, dated 2016).

Legend:
[1] = target: T1, human TRPV4 (Homo sapiens (Human), UniProt Q9HBA0); test: Test Example 3: measurement of TRPV4 inhibitory activity (Fluo-3, FDSS 3000, 4α-PDD); format: cell-based; settings: hTRPV4/CHO cells, calculated from IC50 and 4α-PDD EC50
Procedure, shortened: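 Fluo-3-loaded CHO-K1 cells stably expressing TRPV4 in HEPES/probenecid Hanks buffer pH 7.4; compound added, then 4α-PDD, Ca2+ fluorescence (Ex 480/Em 540 nm) read 8 min. Max-Min normalized to 10 μM Ruthenium Red (100%) and vehicle; IC50 from 10-point 3-fold series converted to Ki using 4α-PDD EC50 and concentration.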

[2] = Solubility test; format: physicochemical; settings: artificial intestinal juice (phosphate buffer) with 1% DMSO, fassgf or other biorelevant, kinetic from dmso stock, artificial intestinal juice pH 6.8, 16 hours at 25° C.
Experimental: The solubility of each compound is determined under 1% DMSO addition conditions. A 10 mmol/L solution of the compound is prepared with DMSO, and 6 μL of the compound solution is added to 594 μL of an artificial intestinal juice (water and 118 mL of 0.2 mol/L NaOH reagent are added to 250 mL of 0.2 mol/L potassium dihydrogen phosphate reagent to reach 1000 mL) with a pH of 6.8. The mixture is left standing for 16 hours at 25° C., and the mixture is vacuum-filtered. The filtrate is two-fold diluted with methanol/water=1/1, and the compound concentration in the filtrate is measured with HPLC or LC/MS/MS by the absolute calibration method.

[3] = Metabolism stability test; format: in vitro ADME; settings: human liver microsomes, 30 minutes
Experimental: Using a commercially available pooled human hepatic microsomes, a test compound was reacted for a constant time, a remaining rate was calculated by comparing a reacted sample and an unreacted sample, thereby, a degree of metabolism in liver was assessed.
A reaction was performed (oxidative reaction) at 37° C. for 0 minute or 30 minutes in the presence of 1 mmol/L NADPH in 0.2 mL of a buffer (50 mmol/L Tris-HCl pH 7.4, 150 mmol/L potassium chloride, 10 mmol/L magnesium chloride) containing 0.5 mg protein/mL of human liver microsomes. After the reaction, 50 μL of the reaction mixture was added to 100 μL of a methanol/acetonitrile=1/1 (v/v), mixed and centrifuged at 3000 rpm for 15 minutes. The test compound in the supernatant was quantified by LC/MS/MS, and a remaining amount of the test compound after the reaction was calculated, letting a compound amount at 0 minute reaction time to be 100%. Hydrolysis reaction was performed in the absence of NADPH and glucuronidation reaction was in the presence of 5 mM UDP-glucuronic acid in place of NADPH, followed by similar operations.

[4] = BA test (oral absorbability); format: in vivo; settings: plasma; Mouse, oral administration 1 mg/kg
Experimental: An experimental material and a method for examining oral absorbability
(1) Animals used rats or mice were used.
(2) Breeding condition: chow and sterilized tap water were allowed to be taken in freely.
(3) Setting of a dosage and grouping: a predetermined dosage was administered orally or intravenously. Groups were formed as shown below. (A dosage varied depending on each compound) Oral administration 1-30 mg/kg (n=2 to 3) Intravenous administration 0.5-10 mg/kg (n=2 to 3) (4) Preparation of administered liquid: In oral administration, a solution or suspension was administered. In intravenous administration, after solubilization, the administration was performed. (5) Method of Administration: In oral administration, compulsory administration to the stomach was conducted using an oral probe.
In intravenous administration, administration from the caudal vein was conducted using a syringe with an injection needle.
(6) Evaluation item: Blood was chronologically collected, and then the drug concentration in blood plasma was measured using a LC/MS/MS.
(7) Statistical analysis: With regard to a shift in plasma concentration, the plasma concentration-time area under the curve (AUC) was calculated using a nonlinear least-squares program WinNonlin®. Bioavailability (BA) was calculated from the AUCs of the oral administration group and the intravenous administration group, respectively. […]

[5] = target: T1, human TRPV4; test: Test Example 1: measurement of TRPV4 inhibitory activity (Fluo 4-AM, FLIPR TETRA, 4α-PDD 1 μmol/L); format: cell-based; settings: hTRPV4/CHO cells, 4α-PDD 1 μmol/L
Procedure, shortened: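 Calcium influx evoked by 4α-PDD (final 1 μmol/L) in hTRPV4/CHO-K1 cells loaded with Fluo-4 AM (final 3 μmol/L), pH 7.4 HEPES-Hanks with probenecid; compounds added 5 min earlier. Inhibition relative to 20 μM Ruthenium Red gave IC50 (logistic), converted to Ki via agonist EC50.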

[6] = target: T1, human TRPV4; test: Test Example 2: measurement of TRPV4 inhibitory activity (Fluo 3-AM, FLIPR, 4α-PDD 600 nmol/L); format: cell-based; settings: hTRPV4/CHO cells
Experimental: For each compound, TRPV4 inhibitory activity was measured using cells.
(1) The TRPV4 inhibitory activity was measured using CHO-K1 cells stably expressing human TRPV4 (hTRPV4/CHO cells).
(2) In the day before the experimental day, frozen cell were thawed and washed with the culture medium (MEM-α, 10% FBS, 4 mmol/L L-Glutamine, 50 unit Penicillin, 50 μg/mL Streptomycin). Then cells were suspended in the culture medium.
(3) The 384-well plates which hTRPV4/CHO cells were seeded at densities of 4000 cells/well in the culture medium and cultured in a CO2 incubator in the presence of 5% CO2 at 37° C. for overnight was used as assay plates. […]
(7) Diluted compound solution was dispensed to each well in the compound plate, and mixed with built-in Pipette and Mixer of the Fluorescence analysis system FLIPR 384 (Molecular devices). […]
(9) The fluorescent intensity was measured with FLIPR TETRA system for 7 min from the point of time addition the compound solution, at Ex 488 nm, Em 510-570 nm wavelength.
TRPV4 inhibitory activity (IC50 value) of a compound was evaluated according to the following procedure.
(10) In the presence of the compound, the difference between maximal and minimal of fluorescent intensity value for 3 min from just before addition of 4α-PDD solution was calculated, and it was referred as Max-Min value. […]

T1 sequence (Q9HBA0 whole entry): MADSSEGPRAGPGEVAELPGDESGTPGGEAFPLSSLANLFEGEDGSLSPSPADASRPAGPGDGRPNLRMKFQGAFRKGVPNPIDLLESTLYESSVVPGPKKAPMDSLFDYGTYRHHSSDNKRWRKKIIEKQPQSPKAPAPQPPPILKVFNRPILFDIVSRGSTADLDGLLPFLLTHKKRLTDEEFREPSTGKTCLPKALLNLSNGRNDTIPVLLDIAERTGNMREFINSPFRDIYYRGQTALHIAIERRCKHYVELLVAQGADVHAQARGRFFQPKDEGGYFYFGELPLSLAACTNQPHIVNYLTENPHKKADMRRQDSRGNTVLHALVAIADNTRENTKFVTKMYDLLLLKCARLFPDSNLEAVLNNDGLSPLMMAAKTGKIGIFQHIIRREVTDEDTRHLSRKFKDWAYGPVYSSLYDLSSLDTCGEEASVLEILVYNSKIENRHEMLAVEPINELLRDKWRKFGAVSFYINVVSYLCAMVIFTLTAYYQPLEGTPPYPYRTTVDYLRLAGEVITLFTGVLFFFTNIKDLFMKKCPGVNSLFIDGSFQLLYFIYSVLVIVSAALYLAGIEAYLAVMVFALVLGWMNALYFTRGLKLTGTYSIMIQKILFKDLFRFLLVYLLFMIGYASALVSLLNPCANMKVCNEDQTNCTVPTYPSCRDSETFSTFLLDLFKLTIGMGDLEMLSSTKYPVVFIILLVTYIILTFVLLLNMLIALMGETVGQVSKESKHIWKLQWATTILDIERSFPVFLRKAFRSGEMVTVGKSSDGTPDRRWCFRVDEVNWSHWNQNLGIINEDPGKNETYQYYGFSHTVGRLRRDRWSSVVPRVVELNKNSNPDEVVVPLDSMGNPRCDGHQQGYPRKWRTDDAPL

remaining rate (metabolism stability) ([3]; compound concentration 0.5 μmol/L) | IC50 [5] | IC50 [6] | SMILES | Ki [1] | solubility at 16 h [2] | remaining rate (metabolism stability) ([3]; compound concentration 2 μmol/L) | bioavailability [4]
 |  |  | Cc1c(C(=O)Nc2cccc(C(F)(F)F)c2)cc(-c2ccccc2)n1CCCN1CCNCC1 [Compound I-014] | 355 nM | > 50 µM | 66.3% | 15.2%
92.2% |  |  | CNCCCn1c(-c2ccccc2)cc(C(=O)Nc2cccc(C(F)(F)F)c2)c1C [Compound I-031] | 160 nM | > 50 µM |  | 24.4%
 | 1200 nM | 1600 nM | Cc1c(C(=O)Nc2cccc(C(F)(F)F)c2)cc(-c2ccccc2)n1CCSCc1c(F)cccc1Cl [Compound I-084] |  |  |  | 
